Among the test systems are MCF7 breast; COLO 205 colon; OVCAR-3 ovarian; HOP-92 NSCLC; UO-31 renal; MDA-MB-231 breast; IGROV1 ovarian; DU-145 prostate; ACHN renal; HCC-2998 colon.
Test in all cases: inhibition of tumour cell growth, NCI panel, 48 h

This is an account of results in PubChem BioAssay (NCI).

Where “and” joins values, the source holds several entries; their conditions need not be identical. Identical values can stand only once.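 Test compounds were applied to cells in 96-well plates for 48 hours at 5 doses. The concentration for 50% growth inhibition is given as GI50. TGI: concentration producing complete growth inhibition.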

With `N/C(=N\c1nc2ccccc2s1)NC(=O)Nc1ccccc1Cl`, the GI50 in the experiment with MCF7 breast is 0.112 µM; in the experiment on COLO 205 colon, 0.151 µM; in the experiment on OVCAR-3 ovarian, 0.0857 µM; in the experiment with HOP-92 NSCLC it was 0.356 µM; with UO-31 renal it was 0.197 µM; in the experiment on MDA-MB-231 breast, 0.431 µM. In addition, the GI50 with IGROV1 ovarian is 0.134 µM; with DU-145 prostate it was 0.259 µM; in the experiment with ACHN renal, 0.227 µM; in the experiment on HCC-2998 colon, 0.348 µM. Moreover, the TGI was over 100 µM in the experiment on MCF7 breast; 2.13 µM with COLO 205 colon; 0.594 µM with OVCAR-3 ovarian; 56.4 µM with HOP-92 NSCLC; 21.2 µM with UO-31 renal; 8.21 µM with MDA-MB-231 breast. Also, the TGI turned out to be 21.6 µM in the experiment with IGROV1 ovarian, 9.28 µM in the experiment on DU-145 prostate, 7.17 µM with ACHN renal and 10.9 µM in the experiment with HCC-2998 colon.
On to `N=C1C(c2nc3ccccc3s2)=C(O)CN1c1ccc(Cl)cc1Cl`, for which the GI50 is 41.2 µM with MCF7 breast; 36.6 µM with COLO 205 colon; 18.7 µM in the experiment with OVCAR-3 ovarian; 15.8 µM with HOP-92 NSCLC; 1.63 µM in the experiment with UO-31 renal; 17.1 µM with MDA-MB-231 breast. Moreover, the GI50 with IGROV1 ovarian is 19.4 µM; in the experiment on DU-145 prostate it was 18.9 µM; in the experiment on ACHN renal, 13 µM; with HCC-2998 colon it was 10.4 µM. The TGI in the experiment on MCF7 breast is over 100 µM; in the experiment with COLO 205 colon it was over 100 µM; with OVCAR-3 ovarian, over 100 µM; with HOP-92 NSCLC it was 38.1 µM; in the experiment with UO-31 renal, 3.62 µM; with MDA-MB-231 breast, 42.9 µM. For the same compound, the TGI in the experiment on IGROV1 ovarian was 46.9 µM; in the experiment on DU-145 prostate it was 63.7 µM; with ACHN renal it was 28.8 µM; with HCC-2998 colon, 31.1 µM.
On to `COc1cc2c(Nc3ccc(Br)cc3F)ncnc2cc1OCC1CCN(C)CC1`, for which the GI50 in the experiment with MCF7 breast is 2.52 µM and 4.67 µM; with COLO 205 colon, 3.6 µM and 4.33 µM; in the experiment on OVCAR-3 ovarian, 1.65 µM and 2.58 µM; in the experiment with HOP-92 NSCLC it was 0.527 µM and 0.454 µM; in the experiment with UO-31 renal, 0.573 µM and 0.479 µM; with MDA-MB-231 breast, 2.19 µM and 3.62 µM. The GI50 in the experiment with IGROV1 ovarian is 0.408 µM and 0.398 µM; in the experiment with DU-145 prostate it was 1.31 µM and 3.98 µM; in the experiment on ACHN renal it was 0.471 µM and 0.556 µM; in the experiment with HCC-2998 colon it was 7.38 µM and > 10 µM. For the same compound, the TGI with MCF7 breast was 16 µM and > 10 µM; in the experiment with COLO 205 colon, 9.88 µM and > 10 µM; with OVCAR-3 ovarian, 14.2 µM and > 10 µM; in the experiment with HOP-92 NSCLC it was 4.07 µM and 6.91 µM; with UO-31 renal, 2.5 µM and 5.78 µM; in the experiment with MDA-MB-231 breast, 8.29 µM and > 10 µM. Further, the TGI in the experiment with IGROV1 ovarian is 3.61 µM and 5.27 µM; in the experiment with DU-145 prostate, 15.1 µM and > 10 µM; in the experiment with ACHN renal, 11.4 µM and > 10 µM; with HCC-2998 colon, 21.6 µM and > 10 µM.
For `Cc1ccc(C(=O)CCC2C(=O)CC(C)(C)CC2=O)cc1`, the TGI with MCF7 breast, in the experiment on COLO 205 colon, in the experiment on OVCAR-3 ovarian, in the experiment on HOP-92 NSCLC, in the experiment on UO-31 renal and in the experiment on MDA-MB-231 breast was over 100 µM throughout. Moreover, the TGI in the experiment on IGROV1 ovarian, in the experiment with DU-145 prostate, in the experiment on ACHN renal and in the experiment with HCC-2998 colon was over 100 µM each time.
As to `CNC(=O)c1cncc(/C=C/c2c(C)cccc2C)c1`, the GI50 in the experiment on MCF7 breast is over 25 µM; in the experiment with COLO 205 colon, over 22.6 µM; in the experiment on OVCAR-3 ovarian it was over 25 µM; in the experiment on HOP-92 NSCLC it was 3.34 µM; with UO-31 renal, 9.29 µM; in the experiment with MDA-MB-231 breast it was 21.1 µM. Further, the GI50 with IGROV1 ovarian was 12.9 µM; with DU-145 prostate, over 25 µM; in the experiment with ACHN renal, 16.3 µM; in the experiment on HCC-2998 colon it was over 25 µM. Further, the TGI with MCF7 breast was over 25 µM; in the experiment on COLO 205 colon, over 25 µM; in the experiment with OVCAR-3 ovarian, over 25 µM; with HOP-92 NSCLC it was 22.9 µM; in the experiment on UO-31 renal it was over 25 µM; with MDA-MB-231 breast, over 25 µM. The TGI with IGROV1 ovarian, in the experiment on DU-145 prostate, in the experiment with ACHN renal and with HCC-2998 colon was over 25 µM throughout.
For the compound `COc1c(B(O)O)cccc1-c1nc2c(F)cc3[nH]ncc3c2c2c1CCCC2`, the GI50 is 1.31 µM in the experiment with MCF7 breast; 1.61 µM with COLO 205 colon; 2.87 µM in the experiment with OVCAR-3 ovarian; 0.0184 µM with HOP-92 NSCLC; 0.405 µM in the experiment with UO-31 renal; 0.0423 µM in the experiment with MDA-MB-231 breast. The GI50 in the experiment with IGROV1 ovarian is 1.41 µM; in the experiment on DU-145 prostate, 2.18 µM; with ACHN renal, 0.845 µM; in the experiment with HCC-2998 colon, 2.22 µM. Further, the TGI in the experiment on MCF7 breast came out at 13.5 µM; in the experiment with COLO 205 colon, 6.19 µM; with OVCAR-3 ovarian it was 19.3 µM; in the experiment on HOP-92 NSCLC it was 56.8 µM; with UO-31 renal it was 19.4 µM; with MDA-MB-231 breast, 35.9 µM. The TGI was 23.5 µM in the experiment with IGROV1 ovarian, 26.9 µM with DU-145 prostate, 42.8 µM in the experiment on ACHN renal and 8.91 µM with HCC-2998 colon.
For the compound `O=S(=O)(NCCCNc1cc(-c2cn(-c3ccccc3)nc2-c2cccc(O)c2)ccn1)c1cccc2ccccc12`, the GI50 is 1.96 µM in the experiment with MCF7 breast; 1.69 µM with COLO 205 colon; 5.62 µM with OVCAR-3 ovarian; 1.41 µM with HOP-92 NSCLC; 2.1 µM in the experiment with UO-31 renal; 1.86 µM with MDA-MB-231 breast. The GI50 in the experiment with IGROV1 ovarian was 5.86 µM; with DU-145 prostate, 4 µM; in the experiment with ACHN renal, 3.7 µM; in the experiment on HCC-2998 colon, 1.75 µM. In addition, the TGI was 5.45 µM in the experiment on MCF7 breast; 3.29 µM in the experiment with COLO 205 colon; over 100 µM in the experiment with OVCAR-3 ovarian; 7.28 µM with HOP-92 NSCLC; 9.32 µM in the experiment on UO-31 renal; 6.52 µM in the experiment with MDA-MB-231 breast. The TGI with IGROV1 ovarian was over 100 µM; in the experiment on DU-145 prostate it was over 100 µM; with ACHN renal, over 100 µM; in the experiment with HCC-2998 colon it was 3.45 µM.
